Measured values reported in patent publication US9567322B2, “Substituted tetrahydropyrans and method of use” (AbbVie S.á.r.l., priority 2014, dated 2017).

Target: T1, F508delCFTR (Homo sapiens, UniProt P13569, DEL508-508)
T1 construct: expressed in transfected cells; host or cells: CFBE41o- (CFBE41o-F508delCFTR-HRP), doxycycline-inducible
Assay: Cell Surface Expression-Horse Radish Peroxidase (CSE-HRP) assay
Format: cell-based
Conditions: CFBE41o-F508delCFTR-HRP cells; for EC50: cell surface expression, luminescence readout, 18-24 hours at 33° C., highest concentration tested 20 μM, 8-point curve; for Maximum % activity: maximum at any tested concentration, normalized to on-plate positive control (3 μM) and DMSO
Source text: Cell Surface Expression-Horse Radish Peroxidase (CSE-HRP) Assay:
A cellular assay for measuring the F508delCFTR cell surface expression after correction with test compounds was developed in human lung derived epithelial cell line (CFBE41o-) (Veit G et al, (2012) Mol Biol Cell. 23(21): 4188-4202). This was achieved by expressing the F508delCFTR mutation along with a horseradish peroxidase (HRP) in the fourth exofacial loop and then measuring the HRP activity using luminescence readout from these cells, CFBE41o-F508delCFTR-HRP, that were incubated overnight with the test corrector compounds. Briefly, for this primary assay, the CFBE41o-F508delCFTR-HRP cells were plated in 384-well plates (Greiner Bio-one; Cat 781080) at 4,000 cells/well along with 0.5 μg/mL doxycycline to induce the F508delCFTR-HRP expression and further incubated at 37° C., 5% CO2 for 72 hours. The test compounds were then added at the required concentrations and further incubated for 18-24 hours at 33° C. The highest concentration tested was 20 μM with an 8-point concentration response curve using a 3-fold dilution. Three replicate plates were run to determine one EC50. All plates contained negative controls (dimethyl sulfoxide, DMSO) and positive controls (3 μM of 3-[(2R,4R)-4-({[1-(2,2-difluoro-1,3-benzodioxol-5-yl)cyclopropyl]carbonyl}amino)-7-methoxy-3,4-dihydro-2H-chromen-2-yl]benzoic acid) as well as on-plate concentration response of the positive control. Post incubation, the plates were washed 5× times with Dulbecco's phosphate buffered saline (DPBS), followed by the addition of the HRP substrate, luminol (50 μL), and measuring the HRP activity using luminescence readout on EnVision® Multilabel Plate Reader (Perkin Elmer; product number 2104-0010). The raw counts from the experiment are analyzed using Accelrys® Assay Explorer v3.3.
Z′ greater than 0.5 was used as passing quality control criteria for the plates.
The Z′ is defined as: 1−[3*SDPositive Control+3*SDNegative Control/Absolute(MeanPositive Control−MeanNegative Control)],
wherein “SD” is standard deviation.
The % activity measured at each of the 8 test concentrations of the test compound was normalized to the on-plate positive control using the following formula: % activity=[(test compound response−DMSO response)/(positive control response−DMSO response)]*100
The maximum % activity achieved for the test compound at any tested concentration is presented in Table 1 along with the EC50 calculated using the following general sigmoidal curve with variable Hill slope equation (described as Model 42 in the Accelrys® Assay Explorer v3.3 software): y=(a−d)/(1+(x/c)^b)+d General sigmoidal curve with concentration, response, top, bottom, EC50 and Hill slope.
This model describes a sigmoidal curve with an adjustable baseline, a. The equation can be used to fit curves where response is either increasing or decreasing with respect to the independent variable, “x”.
“x” is a concentration of drug under test.
“a” is the maximum response, and “d” is the minimum response
“c” is the inflection point (EC50) for the curve. That is, “y” is halfway between the lower and upper asymptotes when x=c.
“b” is the slope-factor or Hill coefficient. The sign of b is positive when the response increases with increasing dose and is negative when the response decreases with increasing dose (inhibition).

T1 sequence (P13569 with tags, fused parts or gaps DEL508-508): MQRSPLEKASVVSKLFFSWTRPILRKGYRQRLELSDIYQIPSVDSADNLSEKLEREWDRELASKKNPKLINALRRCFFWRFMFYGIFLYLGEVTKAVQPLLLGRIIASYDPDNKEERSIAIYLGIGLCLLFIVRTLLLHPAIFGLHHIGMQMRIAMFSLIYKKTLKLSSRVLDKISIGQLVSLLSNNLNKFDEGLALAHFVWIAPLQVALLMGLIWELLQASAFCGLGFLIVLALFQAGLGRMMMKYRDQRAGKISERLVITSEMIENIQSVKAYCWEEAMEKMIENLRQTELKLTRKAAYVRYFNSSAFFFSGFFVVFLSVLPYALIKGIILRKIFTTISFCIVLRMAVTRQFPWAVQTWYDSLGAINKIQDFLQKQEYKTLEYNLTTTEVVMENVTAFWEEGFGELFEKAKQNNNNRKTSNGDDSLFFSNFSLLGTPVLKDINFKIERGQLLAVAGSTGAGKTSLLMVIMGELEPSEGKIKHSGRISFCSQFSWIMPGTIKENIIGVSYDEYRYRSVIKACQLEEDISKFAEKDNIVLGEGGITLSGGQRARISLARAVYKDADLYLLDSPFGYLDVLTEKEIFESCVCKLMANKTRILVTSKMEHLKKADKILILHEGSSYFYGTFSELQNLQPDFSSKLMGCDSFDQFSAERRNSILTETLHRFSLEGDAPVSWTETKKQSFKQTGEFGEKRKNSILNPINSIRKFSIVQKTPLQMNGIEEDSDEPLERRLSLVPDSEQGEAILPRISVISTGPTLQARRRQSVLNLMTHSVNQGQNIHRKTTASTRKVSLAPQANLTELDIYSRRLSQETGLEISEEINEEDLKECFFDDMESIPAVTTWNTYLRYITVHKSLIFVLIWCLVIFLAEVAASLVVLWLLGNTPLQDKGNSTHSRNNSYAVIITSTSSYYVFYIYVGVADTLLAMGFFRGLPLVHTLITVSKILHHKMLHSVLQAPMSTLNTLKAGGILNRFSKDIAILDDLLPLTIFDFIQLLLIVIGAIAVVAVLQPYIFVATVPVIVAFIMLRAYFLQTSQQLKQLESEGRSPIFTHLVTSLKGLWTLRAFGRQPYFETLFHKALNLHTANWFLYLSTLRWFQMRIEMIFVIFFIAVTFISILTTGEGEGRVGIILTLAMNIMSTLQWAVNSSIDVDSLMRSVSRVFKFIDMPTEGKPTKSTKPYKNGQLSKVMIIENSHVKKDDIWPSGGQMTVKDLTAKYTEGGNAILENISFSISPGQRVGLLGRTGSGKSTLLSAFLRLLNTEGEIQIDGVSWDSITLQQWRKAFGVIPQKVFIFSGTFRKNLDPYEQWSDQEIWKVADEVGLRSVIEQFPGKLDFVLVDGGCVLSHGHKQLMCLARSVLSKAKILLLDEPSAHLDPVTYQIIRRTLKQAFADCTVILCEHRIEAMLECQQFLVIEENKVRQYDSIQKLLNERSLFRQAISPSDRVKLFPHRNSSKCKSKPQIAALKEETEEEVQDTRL

EC50 | Maximum % activity | SMILES
1700 nM | 62% | O=C(N[C@H]1CCO[C@@H](c2ccccc2)C1)C1(c2ccc3c(c2)OC(F)(F)O3)CC1 (racemic) [Example 1, rac-1-(2,2-difluoro-1,3-benzodioxol-5-yl)-N-[(2R,4S)-2-phenyltetrahydro-2H-pyran-4-yl]cyclopropanecarboxamide]
850 nM | 71% | O=C(O)c1cccc([C@H]2C[C@@H](NC(=O)C3(c4ccc5c(c4)OC(F)(F)O5)CC3)CCO2)c1 (racemic) [Example 2, rac-3-[(2R,4S)-4-({[1-(2,2-difluoro-1,3-benzodioxol-5-yl)cyclopropyl]carbonyl}amino)tetrahydro-2H-pyran-2-yl]benzoic acid]
1410 nM | 64% | COC(=O)c1cccc([C@H]2C[C@@H](NC(=O)C3(c4ccc5c(c4)OC(F)(F)O5)CC3)CCO2)c1 (racemic) [Example 3, methyl rac-3-[(2R,4S)-4-({[1-(2,2-difluoro-1,3-benzodioxol-5-yl)cyclopropyl]carbonyl}amino)tetrahydro-2H-pyran-2-yl]benzoate]
3110 nM | 23% | COC(=O)c1cccc([C@H]2C[C@H](NC(=O)C3(c4ccc5c(c4)OC(F)(F)O5)CC3)CCO2)c1 (racemic) [Example 4, methyl rac-3-[(2R,4R)-4-({[1-(2,2-difluoro-1,3-benzodioxol-5-yl)cyclopropyl]carbonyl}amino)tetrahydro-2H-pyran-2-yl]benzoate]
≥ 20000 nM | 13% | O=C(O)c1cccc([C@H]2C[C@H](NC(=O)C3(c4ccc5c(c4)OC(F)(F)O5)CC3)CCO2)c1 (racemic) [Example 5, rac-3-[(2R,4R)-4-({[1-(2,2-difluoro-1,3-benzodioxol-5-yl)cyclopropyl]carbonyl}amino)tetrahydro-2H-pyran-2-yl]benzoic acid]
5150 nM | 32% | O=C(N[C@@H]1CCO[C@@H](c2cccc(CO)c2)C1)C1(c2ccc3c(c2)OC(F)(F)O3)CC1 (racemic) [Example 6, rac-1-(2,2-difluoro-1,3-benzodioxol-5-yl)-N-{(2R,4R)-2-[3-(hydroxymethyl)phenyl]tetrahydro-2H-pyran-4-yl}cyclopropanecarboxamide]
5560 nM | 27% | CC(C)(O)c1cccc([C@H]2C[C@H](NC(=O)C3(c4ccc5c(c4)OC(F)(F)O5)CC3)CCO2)c1 (racemic) [Example 7, rac-1-(2,2-difluoro-1,3-benzodioxol-5-yl)-N-{(2R,4R)-2-[3-(2-hydroxypropan-2-yl)phenyl]tetrahydro-2H-pyran-4-yl}cyclopropanecarboxamide]
1390 nM | 57% | CC(=O)c1cccc([C@H]2C[C@@H](NC(=O)C3(c4ccc5c(c4)OC(F)(F)O5)CC3)CCO2)c1 (racemic) [Example 8, rac-N-[(2R,4S)-2-(3-acetylphenyl)tetrahydro-2H-pyran-4-yl]-1-(2,2-difluoro-1,3-benzodioxol-5-yl)cyclopropanecarboxamide]
2260 nM | 61% | O=C(N[C@H]1CCO[C@@H](c2cccc(CO)c2)C1)C1(c2ccc3c(c2)OC(F)(F)O3)CC1 (racemic) [Example 9, rac-1-(2,2-difluoro-1,3-benzodioxol-5-yl)-N-{(2R,4S)-2-[3-(hydroxymethyl)phenyl]tetrahydro-2H-pyran-4-yl}cyclopropanecarboxamide]
2090 nM | 58% | CC(C)(O)c1cccc([C@H]2C[C@@H](NC(=O)C3(c4ccc5c(c4)OC(F)(F)O5)CC3)CCO2)c1 (racemic) [Example 10, rac-1-(2,2-difluoro-1,3-benzodioxol-5-yl)-N-{(2R,4S)-2-[3-(2-hydroxypropan-2-yl)phenyl]tetrahydro-2H-pyran-4-yl}cyclopropanecarboxamide]
900 nM | 116% | COC(=O)c1ccccc1[C@H]1C[C@@H](NC(=O)C2(c3ccc4c(c3)OC(F)(F)O4)CC2)CCO1 (racemic) [Example 11, methyl rac-2-[(2R,4S)-4-({[1-(2,2-difluoro-1,3-benzodioxol-5-yl)cyclopropyl]carbonyl}amino)tetrahydro-2H-pyran-2-yl]benzoate]
7630 nM | 108% | O=C(O)c1ccccc1[C@H]1C[C@@H](NC(=O)C2(c3ccc4c(c3)OC(F)(F)O4)CC2)CCO1 (racemic) [Example 12, rac-2-[(2R,4S)-4-({[1-(2,2-difluoro-1,3-benzodioxol-5-yl)cyclopropyl]carbonyl}amino)tetrahydro-2H-pyran-2-yl]benzoic acid]
1160 nM | 110% | COC(=O)c1ccc([C@H]2C[C@@H](NC(=O)C3(c4ccc5c(c4)OC(F)(F)O5)CC3)CCO2)cc1 (racemic) [Example 13, methyl rac-4-[(2R,4S)-4-({[1-(2,2-difluoro-1,3-benzodioxol-5-yl)cyclopropyl]carbonyl}amino)tetrahydro-2H-pyran-2-yl]benzoate]
2180 nM | 63% | COC(=O)c1cccc([C@H]2C[C@H](NC(=O)C3(c4ccc5c(c4)OC(F)(F)O5)CC3)C[C@@H](c3ccccc3)O2)c1 (racemic) [Example 22, methyl rac-3-[(2R,4R,6S)-4-({[1-(2,2-difluoro-1,3-benzodioxol-5-yl)cyclopropyl]carbonyl}amino)-6-phenyltetrahydro-2H-pyran-2-yl]benzoate]
850 nM | 104% | COC(=O)c1cccc([C@H]2C[C@@H](NC(=O)C3(c4ccc5c(c4)OC(F)(F)O5)CC3)C[C@@H](c3ccccc3)O2)c1 (racemic) [Example 23, methyl rac-3-[(2R,4S,6S)-4-({[1-(2,2-difluoro-1,3-benzodioxol-5-yl)cyclopropyl]carbonyl}amino)-6-phenyltetrahydro-2H-pyran-2-yl]benzoate]
2020 nM | 108% | O=C(O)c1cccc([C@H]2C[C@H](NC(=O)C3(c4ccc5c(c4)OC(F)(F)O5)CC3)C[C@@H](c3ccccc3)O2)c1 (racemic) [Example 25, rac-3-[(2R,4R,6S)-4-({[1-(2,2-difluoro-1,3-benzodioxol-5-yl)cyclopropyl]carbonyl}amino)-6-phenyltetrahydro-2H-pyran-2-yl]benzoic acid]
4120 nM | 69% | COC(=O)c1ccc([C@H]2C[C@H](NC(=O)C3(c4ccc5c(c4)OC(F)(F)O5)CC3)CC(C)(C)O2)cc1 (racemic) [Example 32, methyl rac-4-[(2R,4S)-4-({[1-(2,2-difluoro-1,3-benzodioxol-5-yl)cyclopropyl]carbonyl}amino)-6,6-dimethyltetrahydro-2H-pyran-2-yl]benzoate]
3890 nM | 102% | CC1(C)C[C@@H](NC(=O)C2(c3ccc4c(c3)OC(F)(F)O4)CC2)C[C@H](c2ccc(C(=O)O)cc2)O1 (racemic) [Example 33, rac-4-[(2R,4S)-4-({[1-(2,2-difluoro-1,3-benzodioxol-5-yl)cyclopropyl]carbonyl}amino)-6,6-dimethyltetrahydro-2H-pyran-2-yl]benzoic acid]
1610 nM | 105% | COC(=O)c1ccc([C@H]2C[C@@H](NC(=O)C3(c4ccc5c(c4)OC(F)(F)O5)CC3)CC(C)(C)O2)cc1 (racemic) [Example 34, methyl rac-4-[(2R,4R)-4-({[1-(2,2-difluoro-1,3-benzodioxol-5-yl)cyclopropyl]carbonyl}amino)-6,6-dimethyltetrahydro-2H-pyran-2-yl]benzoate]
